Experimental data taken from PubChem BioAssay (NCI).
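The compound was tested at five concentrations on cells cultured in 96-well plates, with a 48-hour exposure period. The concentration for 50% growth inhibition is given as GI50. Definition used: TGI = concentration required for complete inhibition of growth.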

Key:
Test in all cases: growth of human tumour cells (NCI), 48 h
NCI-H460 lung = system: NCI-H460 lung
MDA-MB-231 breast = system: MDA-MB-231 breast
SNB-19 CNS = system: SNB-19 CNS
HCT-15 colon = system: HCT-15 colon
UACC-62 melanoma = system: UACC-62 melanoma
T-47D breast = system: T-47D breast
SW-620 colon = system: SW-620 colon
MCF7 breast = system: MCF7 breast
HOP-92 NSCLC = system: HOP-92 NSCLC
SF-539 CNS = system: SF-539 CNS

| SMILES | TGI (NCI-H460 lung) [µM] | TGI (MDA-MB-231 breast) [µM] | TGI (SNB-19 CNS) [µM] | TGI (HCT-15 colon) [µM] | TGI (UACC-62 melanoma) [µM] | TGI (T-47D breast) [µM] | TGI (SW-620 colon) [µM] | TGI (MCF7 breast) [µM] | TGI (HOP-92 NSCLC) [µM] | TGI (SF-539 CNS) [µM] | GI50 (NCI-H460 lung) [µM] | GI50 (MDA-MB-231 breast) [µM] | GI50 (SNB-19 CNS) [µM] | GI50 (HCT-15 colon) [µM] | GI50 (UACC-62 melanoma) [µM] | GI50 (T-47D breast) [µM] | GI50 (SW-620 colon) [µM] | GI50 (MCF7 breast) [µM] | GI50 (HOP-92 NSCLC) [µM] | GI50 (SF-539 CNS) [µM] |
| --- | --- | --- | --- | --- | --- | --- | --- | --- | --- | --- | --- | --- | --- | --- | --- | --- | --- | --- | --- | --- |
| CCN(CC)C(=S)SS(=O)(=O)c1ccccc1C(=O)O | > 100 | > 100 | > 100 | > 100 | > 100 | > 100 | > 100 | > 100 | > 100 | > 100 |  |  |  |  |  |  |  |  |  |  |
| CCc1ccc(-c2nnc(COc3ccc(-c4nc5ccc(C)cc5[nH]4)cc3OC)o2)cc1 | 18.4 | 4.87 | > 100 | 10.3 | 5.09 | 5.22 | 62.4 | > 100 | 5.83 | 3.21 | 3.38 | 2.05 | 4.63 | 2.82 | 2.12 | 2.15 | 3.75 | 3.36 | 2.07 | 1.7 |
| CC1=C(/C=C/C(C)=C/C=C/C(C)=C/C(=O)OCC2OC(n3cc(F)c(=O)[nH]c3=O)CC2OC(=O)/C=C(C)/C=C/C=C(C)/C=C/C2=C(C)CCCC2(C)C)C(C)(C)CCC1 (stereo not given) | > 26.7 | > 86.8 | > 100 | > 57.1 | > 23.8 | > 64.7 | > 52.5 | 36.8 | 37.1 | > 100 |  |  |  |  |  |  |  |  |  |  |
| c1ccc(N=C2c3ccccc3CN2c2ccccc2)cc1 | > 100 | > 100 | > 100 | > 100 | > 100 | > 100 | > 100 | > 100 | > 100 | > 100 |  |  |  |  |  |  |  |  |  |  |
| Clc1ccc(N=C/C=C/Nc2ccc(Cl)cn2)nc1 | 32.7 | 16.2 | 30.1 | 13 | 26.2 | 40.9 | 16.9 | 31.6 | 30.1 | 31.3 |  |  |  |  |  |  |  |  |  |  |
| COc1cc(NS(C)(=O)=O)ccc1NCc1cnc2ccc3[nH]c(C)ccc3c12 | > 100 | > 100 | > 100 | > 100 | > 100 | 75 | > 100 | > 100 | > 100 | > 100 |  |  |  |  |  |  |  |  |  |  |
| COc1c2c(c(OC)c3c1c(=O)c1ccccc1n3C)OCO2 | 51.2 | > 31.6 | > 100 | > 100 | > 100 | > 100 | > 100 | > 100 | > 100 | > 90.7 |  |  |  |  |  |  |  |  |  |  |
| O=c1[nH]c2ccc(C(F)(F)F)cc2nc1-c1ccccc1 | > 100 | > 100 | > 100 | > 100 | > 100 | > 100 | > 100 | > 100 | > 100 | > 100 |  |  |  |  |  |  |  |  |  |  |
| Brc1cccc(/C=C/CN2CCN(CCOC(c3ccccc3)c3ccccc3)CC2)c1 | 28.1 | 29.1 | 37.7 | 40.1 | 31.8 | 18.6 | 45.4 | 29.5 | 17.8 | 32.4 |  |  |  |  |  |  |  |  |  |  |
| CNC(=S)/C(=N\Nc1nc[nH]c1C(N)=O)C(N)=S | > 100 | > 24 | > 100 | > 100 | > 92.8 | > 89.3 | > 92 | > 100 | 99.4 | > 81.3 |  |  |  |  |  |  |  |  |  |  |
| CCOC(=O)C1(C(=O)OCC)C[C@]23OCCC(=O)[C@H]2[C@H]2C(=O)OC(C)(C)O[C@]23C1 | > 100 | > 100 | > 100 | > 100 | > 100 | > 100 | > 100 | > 100 | > 100 | > 100 |  |  |  |  |  |  |  |  |  |  |
| O=c1c2ccccc2nc2n1NC(c1c(Cl)cccc1Cl)N2c1cccc(Cl)c1 (stereo not given) | 34.6 | 9.94 | 18 | > 100 | 22.9 | 32.2 | 14.3 | 5.2 | 21.8 | 31 |  |  |  |  |  |  |  |  |  |  |
| CCOc1c2ccsc2c(OCC)c2ccsc12 | > 100 | > 100 | > 100 | > 30.7 | > 100 | > 100 | > 100 | 31.7 | 86.2 | 9.79 |  |  |  |  |  |  |  |  |  |  |
| COc1ccc(OC)c(C2CCc3nc4nc(N)nc(N)c4cc3C2)c1 (stereo not given) | 19.2 | 5.4 | 6.01 | 47.5 | 4.18 | 3.78 | 9.12 | 3.68 | 5.76 | 17.8 |  |  |  |  |  |  |  |  |  |  |
| COc1ccc(/C=C2\C=Cc3ccccc32)cc1OC | > 100 | > 100 | > 100 | > 100 | > 100 | > 100 | > 100 | > 100 | 64.9 | > 100 |  |  |  |  |  |  |  |  |  |  |
| CNc1ncnc(Sc2nc(N)nc3nc[nH]c23)c1[N+](=O)[O-] | 3.28 | 20.6 | > 81.2 | 14 | 16.2 | 16.8 | 20.6 | > 41.5 | 16.4 | 28.9 |  |  |  |  |  |  |  |  |  |  |
| Cc1ccc(Nc2nc(=S)[nH]c3[nH]ncc23)cc1 | > 100 | > 100 | > 100 | > 100 | > 100 | > 100 | > 100 | > 100 | > 100 | > 100 |  |  |  |  |  |  |  |  |  |  |
| OC1(c2ccccc2)CC2CCC(C1)N2CCc1ccccc1 (stereo not given) | > 100 | > 100 | > 100 | > 100 | > 100 | > 100 | > 100 | 78.1 | > 100 | > 100 |  |  |  |  |  |  |  |  |  |  |
| C/C(=N/NC(=S)Nc1ccccc1Cl)c1ccccn1 | 9.85 | 17.3 | 48.5 | 18 | 7.49 | 6.82 | 29.9 | 0.27 | 22.7 | 7.56 |  |  |  |  |  |  |  |  |  |  |
| CN(C)c1nc(N(C)C)nc(N(C)C)n1 | > 150 | > 150 | > 150 | > 150 | > 150 | > 150 | > 150 | > 150 | > 150 | > 142 |  |  |  |  |  |  |  |  |  |  |
| CN(C)CCCNc1c(O)c2c(c(O)c1Cl)C(=O)C=CC2=O | 3.81 | 7.77 | 4.67 | 3.28 | 3.18 | 4.28 | 3.39 | 3.22 | > 10 | 3.22 |  |  |  |  |  |  |  |  |  |  |
| O=C(c1ccccc1)c1ccc(C(c2c(O)c3ccccc3oc2=O)c2c(O)c3ccccc3oc2=O)cc1 | > 100 | > 71.4 | 55.8 | > 95.3 | 39.5 | > 100 | > 100 | > 100 | > 64.1 | > 100 |  |  |  |  |  |  |  |  |  |  |
| Cn1c(=O)oc2cc(C(=O)CSC(=S)N3CCCCCC3)ccc21 | > 100 | > 100 | > 100 | > 100 | > 100 | > 100 | > 100 | > 100 | > 100 | > 100 |  |  |  |  |  |  |  |  |  |  |
